Assay results taken from patent US7071187B2, “Naphthyridine derivatives” (Otsuka Pharmaceutical Factory, Inc., priority 2001, dated 2006).

How the values were obtained:
[1] = system: streptozotocin (STZ) treated male S.D. rats; assay: Pharmacological Test 1: therapeutic effect on diabetic neuropathy (Randall-Selitto pain threshold in STZ rats); assay type: in vivo, rat; settings: 30 mg/kg orally once a day, three hours after administration, left hind paw
Method: Pharmacological Test 1 Therapeutic Effect on Diabetic Neuropathy A model group was obtained by intravenously administering 50 mg/kg streptozotocin (STZ) dissolved in 0.01 M citrate buffer solution to 8-week-old male S.D. rats. After administration, five rats were housed per cage and kept therein. Three weeks after administration of STZ, the pain threshold of each rat's left hind paw to pressure stimulation was measured by Randall-Selitto Test [Randall, L. O. and Selitto, J. J. Arch. Int. Pharmacodyn., 111, 409–419 (1957)]. The value thus obtained was termed “pre-value”. […] A 5% gum arabic solution containing the test compound was orally administered as specimen to experimental animals in one of the above three groups (test group) in such a manner that each dosage of the test compound was 30 mg/kg and the amount of administered solution was 10 ml/kg, once a day for 21 continuous days. […] On the 14th and 21st days, the pain threshold of the left hind paw of the experiment animals was measured three hours after administration. The recovery rate (%) of the pain threshold was calculated by means of the following formula: Recovery rate (%)=[(T−C)/(N−C)]×100 (wherein T is the test group average value, C is the control group average value and N is the non-treated group average value.)

[2] = system: excised ilea of Hartley male guinea pigs; assay: Pharmacological Test 2: adenosine enhancing effect on electrically stimulated contraction of excised ileum; settings: guinea pig ileum, n=2
Method: Adenosine Enhancing Effect
The compounds obtained in Examples 1 and 34 were used as test compounds in the form of a dimethyl sulfoxide solution.
As experimental animals, Hartley male guinea pigs (purchased from CHARLES RIVER JAPAN, INC.) (that were in good general condition at least 6 days after the purchase) were used. The animals were housed in a cage under controlled conditions of temperature of 20 to 26° C. (actually measured value: 22.1 to 22.9° C.), humidity of 40–70% (actually measured value: 50.3–51.5%) and lighting of 12 hours/day (7:00–19:00). The animals had free access to food (solid diet, product name of Labo G Standard, product of Nosan Corporation) and tap water.
The following experiments were conducted using the excised ilea (n=2) of experimental animals (body weight at the time of testing: 316–388 g). The experimental animals were bled and slaughtered. […] The contraction reaction of samples was recorded on an ink-writing recorder (GRAPHTEC, SR-6211, SR-6221) through an isotonic transducer (product of NIHON KOHDEN CORPORATION, TD-112S). […]
That is, the nutrient solution was exchanged, electronic stimulation was applied to the samples 15 minutes after exchange of the nutrient solution, and, when contraction stabilized, adenosine was cumulatively added from 10^−6 M to 10^−5 M. The adenosine dose-response curve was then obtained, and the ED50 value was calculated. […]

[3] = system: male S.D. rats injected with Substance P; assay: Pharmacological Test 3: analgesic effect (Randall-Sellitto pain threshold after Substance P injection); assay type: in vivo, rat; settings: for analgesic effect (in words): conclusion from Table 15; for Recovery rate (%) of the pain threshold (highest recovery rate): oral, 5% gum arabic suspension 10 ml/kg, measurement point 60 minutes after Substance P injection
Method: Pharmacological Test 3 Test for Evaluating Analgesic Effect Using two groups (test group and control group) each consisting of 6-week-old male S.D. rats (7 rats in each group), the pain threshold of each rat's left hind paw was measured using an Analgesy-meter (product of Unicom) in accordance with the Randall-Sellitto method [Randall, L. O. and Sellitto, J. J., Arch. Int. Pharmacodyn., 111, 409–419 (1957)]. The value thus obtained was termed “pre-value”. One hour after the measurement of the pre-value, a 5% gum arabic suspension containing compound of the invention was orally administered to the rats of the test group in an amount of 10 ml/kg, whereas a 5% gum arabic suspension (not containing compound of the invention) was orally administered to the rats of the control group in an amount of 10 ml/kg. One hour after the oral administration, a physiological saline solution containing Substance P (25 ng/0.1 ml) was subcutaneously injected into the left hind paw of each rat. The pain threshold of each rat's left hind paw was measured in the same manner as above at predetermined time intervals after the Substance P injection. The measured value is termed the “post-value”. The recovery rate (%) of the pain threshold was calculated from the post-values and pre-values of the test group and control group, by means of the following formula: [formula]

Row | melting point [°C] | SMILES | also measured
1 | 124 to 126 | C[S+](CCOCc1ccc2c(c1)OCO2)c1c([O-])c2cccnc2n(Cc2ccccc2)c1=O (centres unmarked) [Example 7] | –
2 | 130 to 132 | C[S+](CCOCc1ccccc1)c1c([O-])c2cccnc2n(Cc2ccccc2)c1=O (centres unmarked) [Example 2] | –
3 | 165 to 167 | Cc1cc(C)c(COCC[S+](C)c2c([O-])c3cccnc3n(Cc3ccccc3)c2=O)c(C)c1 (centres unmarked) [Example 5] | –
4 | 161 to 163 | Cc1cccc(C)c1COCC[S+](C)c1c([O-])c2cccnc2n(Cc2ccccc2)c1=O (centres unmarked) [Example 4] | –

Continued, molecule first:

Row | SMILES | melting point [°C] | also measured
5 | COc1cc(OCCC[S+](C)c2c([O-])c3cccnc3n(Cc3ccccc3)c2=O)cc(OC)c1OC (centres unmarked) [Example 1, 1-benzyl-3-[methyl-3-(3,4,5-trimethoxyphenoxy)propylsulfonium]-1,8-naphthyridine-2(1H)-one-4-olate] | 147 to 149 | Recovery rate (%) of the pain threshold, 14th day ([1]; 14th day): 46.2%; Recovery rate (%) of the pain threshold, 21st day ([1]; 21st day): 56.7%; Adenosine enhancing effect (ED50(−)/ED50(+)) ([2]; test compound concentration 10^−6 M): 11.11; analgesic effect (in words) [3]: excellent analgesic effect; Recovery rate (%) of the pain threshold (highest recovery rate) [3]: 46%
6 | COc1cc(Cn2c(=O)c([S+](C)CCOc3cc(OC)c(OC)c(OC)c3)c([O-])c3cccnc32)cc(OC)c1OC (centres unmarked) [Example 15, 1-(3,4,5-trimethoxybenzyl)-3-[methyl-2-(3,4,5-trimethoxyphenoxy)ethylsulfonium]-1,8-naphthyridine-2(1H)-one-4-olate] | – | analgesic effect (in words) [3]: excellent analgesic effect; Recovery rate (%) of the pain threshold (highest recovery rate) [3]: 39%
7 | COc1cc(COCC[S+](C)c2c([O-])c3cccnc3n(Cc3ccccc3)c2=O)cc(OC)c1O (centres unmarked) [Example 10] | 121 to 123 | –
8 | C[S+](CCCOc1ccc(Cl)cc1)c1c([O-])c2cccnc2n(Cc2ccccc2)c1=O (centres unmarked) [Example 3] | 145 to 147 | –
9 | COc1cc(COCC[S+](C)c2c([O-])c3cccnc3n(Cc3ccccc3)c2=O)cc(O)c1OC (centres unmarked) [Example 9] | 132 to 134 | –
10 | C[S+](CCOCc1cc(C(F)(F)F)cc(C(F)(F)F)c1)c1c([O-])c2cccnc2n(Cc2ccccc2)c1=O (centres unmarked) [Example 6] | 157 to 159 | –
11 | COc1cc(COCC[S+](C)c2c([O-])c3cccnc3n(Cc3ccccc3)c2=O)cc2c1OCO2 (centres unmarked) [Example 8] | 84 to 87 | –
12 | CC[S+](CCCOc1cc(OC)c(OC)c(OC)c1)c1c([O-])c2cccnc2n(Cc2ccccc2)c1=O (centres unmarked) [Example 34, 1-benzyl-3-[ethyl-3-(3,4,5-trimethoxyphenoxy)propylsulfonium]-1,8-naphthyridine-2(1H)-one-4-olate] | – | Adenosine enhancing effect (ED50(−)/ED50(+)) ([2]; test compound concentration 10^−5 M): 14.00
13 | COc1cc(OCC[S+](C)c2c([O-])c3cccnc3n(C)c2=O)cc(OC)c1OC (centres unmarked) [Example 36, 1-methyl-3-[methyl-2-(3,4,5-trimethoxyphenoxy)ethylsulfonium]-1,8-naphthyridine-2(1H)-one-4-olate] | – | analgesic effect (in words) [3]: excellent analgesic effect; Recovery rate (%) of the pain threshold (highest recovery rate) [3]: 111%
